Test results taken from patent US9744164B2, “Neuroprotective polyphenol analogs” (Salk Institute for Biological Studies, priority 2011, dated 2017).

Assays:
[1] = system: N9 microglial cells; test: anti-inflammatory assay, LPS-induced microglial activation (NO release); format: cell-based, mouse; settings: bacterial lipopolysaccharide, derivative 1-10 μM, 24 hr
Outline: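 Mouse N9 microglia in DME/7.5% DFCS stimulated with 10 μg/ml LPS alone or with derivatives (1-10 μM) for 24 hr. NO in cleared medium measured by Griess reagent, 10 min at room temperature, absorbance at 550 nm. Fisetin (10 μM) as positive control.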

[2] = system: primary mouse cortical neurons; test: primary cortical cell glutamate excitotoxicity assay; format: cell-based; settings: E14 mouse primary cortical neurons, 10 μM glutamate 10 min, Baicalein 0.2-5 μM, MTT 24 hr
Procedure: FIG. 5B—excitotoxicity assay was done with E14 mouse primary cortical neuron cultures. After 11 days of culture, cells were exposed to 10 μM glutamate for 10 min, followed by the addition of varying concentrations of Baicalein (0.2-5 μM). Cell viability was determined 24 hr later with a standard MTT assay.
Excitotoxicity cell assay: Primary cultures of cortical neurons that die due to excitotoxicity were prepared as described previously. Briefly, BALB/c mouse embryo cortices were minced and treated with 0.1% trypsin for 20 min. After centrifugation, the cells are resuspended in 827 Neurobasal medium (Invitrogen) plus 10% fetal calf serum and are dissociated by repeated pipetting through a 1 mL blue Eppendorf pipette tip. Then the cells are plated at 1×10^5 cells per well in 96-well poly-L-lysine and laminin-coated microtiter plates (Becton Dickinson, Bedford, Mass., USA) in 827 Neurobasal plus 10% fetal calf serum and 20% glial growth-conditioned medium. Two days later the medium is aspirated and replaced by serum-free 827 Neurobasal medium plus 10 μg/mL cytosine arabinoside. The cultures are used without media change 11 days after plating and are essentially free of astrocytes. They are exposed to 10 μM glutamate followed by varying concentrations of the compounds. Cell viability is determined 24 h later using […]. […]

[3] = system: rat cortical neurons; test: trophic factor withdrawal; format: cell-based; settings: serum-containing medium, Baicalein 10-10,000 nM, 2 days
Procedure: FIG. 5A—trophic factor withdrawal. Primary cortical neurons are prepared from 18-day-old rat embryos, and cultured at low cell density 1×10^6/35 mm dish, in serum containing medium with Baicalein (10-10,000 nM), and viability assayed 2 days later using a live-dead assay. […] These include trophic factor withdrawal (TFW), excitotoxicity, glucose starvation, and most importantly, in a chemical ischemia model. […] (FIG. 5A). Using a published excitotoxicity assay, Baicalein rescues about 35% of the cells (FIG. 5B).

[4] = system: RGC-5 nerve cells; test: chemical ischemia model (IAA) in RGC-5 cells; format: cell-based; settings: RGC-5, 30 μM IAA 2 hr, Baicalein 5-25 μM, also added 2 hrs after insult
Procedure: FIG. 5D—RGC-5 nerve cells were treated with 30 μM iodoacetic acid for 2 hr in the presence or absence of 5-25 μM Baicalein. In some experiments, Baicalein was added 2 hr after the ischemic event. Cell survival (%) was measured after 24 hr by the MTT assay. Baicalein added before (□) or 2 hr after (●) ischemia. […] When these cells are starved for glucose, there is approximately 70% maximal survival in the presence of NGF. Baicalein promotes over 80% survival (FIG. 5C).

[5] = Shia, et al. 2009; cited from earlier work
[6] = system: mice; settings: oral dose; cited from earlier work

Structure (SMILES)	microglia (anti-inflammatory activity) [1] [%]	also measured
O=c1c(O)c(-c2ccc(O)c(O)c2)oc2ccccc12 [CMS-04P, reference compound]	80	
O=c1cc(-c2ccccc2)oc2cc(O)c(O)c(O)c12 [Baicalein, 5,6,7-trihydroxyflavone]		cells rescued [2]: about 35%; survival of low-density cultured rat cortical neurons [3]: dramatically promotes the survival; cell death in chemical ischemia model [4]: prevents cell death
Oc1ccc(-c2cc(OC3CCCC3)c3ccccc3n2)cc1O [CMS-121, 4-cyclopentyloxy-2-(3,4-dihydroxyphenyl)quinoline]	82	
CCOc1cc(-c2ccc(O)c(O)c2)nc2ccccc12 [CMS-023, 4-ethoxy-2-(3,4-dihydroxyphenyl)quinoline]	90	
O=c1c(O)c(-c2ccc(O)c(O)c2)oc2cc(O)ccc12 [Fisetin, 3,7,3′,4′-tetrahydroxy flavone]	80	bioavailability [5]: poor; memory [6]: potentiates memory equally as well as rolipram
CC(C)Oc1cc(-c2ccc(O)c(O)c2)nc2ccccc12 [CMS-024, 4-isopropoxy-2-(3,4-dihydroxyphenyl)quinoline]	80	
COc1ccc(/C=C/C(=O)c2cc(C)c(C)cc2O)cc1OCc1ccccc1 [CMS-086, (E)-3-(3-(benzyloxy)-4-methoxyphenyl)-1-(2-hydroxy-4,5-dimethylphenyl)prop-2-en-1-one]	70	
COc1cc(-c2ccc(O)c(O)c2)nc2ccccc12 [CMS-007, 4-methoxy-2-(3,4-dihydroxyphenyl)quinoline]	85	
O=c1c(O)c(-c2ccc(N3CCCC3)c(O)c2)oc2c1ccc1ccccc12 [CMS-140, 3-hydroxy-2-(3-hydroxy-4-(pyrrolidin-1-yl)phenyl)-4H-benzo[h]chromen-4-one]	50	
